Structures are written as SMILES.

One assay deals with PI3Kγ (human) (Homo sapiens, UniProt P48736). In words: Inhibition of PI3 kinase γ activity (HTRF). It is filed as biochemical. The note with it: ATP at or close to Km, IC50 range, read-out: Inhibitor activity versus PI3 Kinase γ. How it is done: (B) Inhibition of PI3 Kinase V Activity
In a final reaction volume of 20 μl, PI3Kγ (human) is incubated in assay buffer containing 10 μM phosphatidylinositol-4,5-bisphosphate and MgATP (concentration as required). The reaction is initiated by the addition of the MgATP mix. After incubation for 30 minutes at room temperature, the reaction is stopped by the addition of 5 μl of stop solution containing EDTA and biotinylated phosphatidylinositol-3,4,5-trisphosphate. Finally, 5 μl of detection buffer is added, which contains europium-labelled anti-GST monoclonal antibody, GST-tagged GRP1 PH domain and streptavidin-allophycocyanin. The plate is then read in time-resolved fluorescence mode and the homogenous time-resolved fluorescence (HTRF) signal is determined according to the formula HTRF=10000×(Em665 nm/Em620 nm).
Duplicate data points are generated from a ⅓ log dilution series of a stock solution of compound in DMSO. Nine dilutions steps are made from a top concentration of 10 μM, and a ‘no compound’ blank is included. The HTRF PI 3-Kinase assay is performed at an ATP concentration at, or close to, the Km. HTRF ratio data is transformed into % activity of controls and analysed with a four parameter sigmoidal dose-response (variable slope) application. QC criteria is based on Top, Bottom, Hill slope, r^2 and IC50, the concentration giving 50% inhibition, which is reported.
(§1) For each of the assays (B), (C) and (D) above, IC50 values are allocated to one of three ranges as follows: […]
(In TR-FRET formats the signal depends on donor and acceptor labels being close together.)

In another assay the test system is human whole blood. In words: LPS-stimulation of human whole blood, TNF-α release. It is filed as cell-based. The note with it: LPS 100 ng/ml, 6 h, TNF-α by ELISA, IC50 range, read-out: Inhibitor activity versus human whole blood TNFα release. The method, then:
(D) LPS-Stimulation of Human Whole Blood
Whole blood is taken by venous puncture using heparinised vacutainers (Becton Dickinson) and diluted in an equal volume of RPMI1640 tissue culture media (Sigma). 100 μl is plated in V-bottomed 96 well tissue culture treated plates. 2 h after the addition of the inhibitor in 100 μl of RPMI1640 media, the blood is stimulated with LPS (E. coli strain 005:B5, Sigma) at a final concentration of 100 ng/ml and incubated at 37° C. in 5% CO2 for 6 h. TNF-α levels are measured from cell-free supernatants by sandwich ELISA (R&D Systems #QTA00B)
as §1
For orientation: ELISA stands for enzyme-linked immunosorbent assay.

Another assay concerns THP-1 cells. The assay is described as follows: LPS-stimulation of THP-1 cells, TNF-α release. It is filed as cell-based. Particulars: Homo sapiens, LPS 1 μg/ml, 6 h, TNF-α by ELISA, IC50 range, read-out: Inhibitor activity versus THP-1 TNFα release. The method, then:
(C) LPS-Stimulation of THP-1 Cells
THP-1 cells are plated in 100 μl at a density of 4×10^4 cells/well in V-bottomed 96 well tissue culture treated plates and incubated at 37° C. in 5% CO2 for 16 h. 2 h after the addition of the inhibitor in 100 μl of tissue culture media, the cells are stimulated with LPS (E. coli strain 005:B5, Sigma) at a final concentration of 1 μg/ml and incubated at 37° C. in 5% CO2 for 6 h. TNF-α levels are measured from cell-free supernatants by sandwich ELISA (R&D Systems #QTA00B)
as §1

Chain of PI3Kγ (human) (P48736 whole entry, the tested form may be a part): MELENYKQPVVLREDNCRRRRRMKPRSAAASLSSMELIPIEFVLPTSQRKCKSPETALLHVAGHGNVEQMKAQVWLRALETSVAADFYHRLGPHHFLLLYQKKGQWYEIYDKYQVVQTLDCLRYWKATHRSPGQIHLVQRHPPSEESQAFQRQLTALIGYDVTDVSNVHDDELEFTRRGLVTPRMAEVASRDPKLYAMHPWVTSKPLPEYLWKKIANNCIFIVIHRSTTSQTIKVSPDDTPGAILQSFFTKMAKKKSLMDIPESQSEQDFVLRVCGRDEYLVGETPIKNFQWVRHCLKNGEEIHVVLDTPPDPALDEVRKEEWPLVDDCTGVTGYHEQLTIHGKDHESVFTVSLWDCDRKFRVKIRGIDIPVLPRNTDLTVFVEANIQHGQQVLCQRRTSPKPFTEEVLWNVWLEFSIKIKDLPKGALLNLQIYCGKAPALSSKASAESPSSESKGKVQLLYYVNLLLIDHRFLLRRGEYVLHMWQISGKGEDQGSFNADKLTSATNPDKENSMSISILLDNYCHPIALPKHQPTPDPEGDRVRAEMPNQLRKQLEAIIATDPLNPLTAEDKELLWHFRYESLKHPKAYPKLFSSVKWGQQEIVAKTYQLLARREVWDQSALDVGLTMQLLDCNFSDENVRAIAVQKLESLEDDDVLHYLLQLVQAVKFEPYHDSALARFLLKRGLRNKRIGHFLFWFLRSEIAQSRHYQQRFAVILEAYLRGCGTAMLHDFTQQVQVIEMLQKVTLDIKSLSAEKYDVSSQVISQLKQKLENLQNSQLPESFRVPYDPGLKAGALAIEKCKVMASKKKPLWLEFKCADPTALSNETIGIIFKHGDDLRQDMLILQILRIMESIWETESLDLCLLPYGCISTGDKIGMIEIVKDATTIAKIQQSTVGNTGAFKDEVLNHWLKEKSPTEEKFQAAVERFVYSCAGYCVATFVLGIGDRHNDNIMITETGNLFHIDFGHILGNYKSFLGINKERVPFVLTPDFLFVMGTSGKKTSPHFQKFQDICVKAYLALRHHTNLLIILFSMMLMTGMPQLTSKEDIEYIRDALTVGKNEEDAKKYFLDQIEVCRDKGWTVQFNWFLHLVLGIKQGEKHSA

For `Cc1nc(NC(=O)CCCN[C@@H](CC(C)C)C(=O)OC2CCCC2)sc1-c1ccc(Cl)c(S(C)(=O)=O)c1` [Example 6, Cyclopentyl N-[4-({5-[4-chloro-3-(methylsulfonyl)phenyl]-4-methyl-1,3-thiazol-2-yl}amino)-4-oxobutyl]-L-leucinate], the values for the IC50 on PI3Kγ (human), in the assay on human whole blood and in the assay with THP-1 cells were 0.1 to 1 µM, more than 1 µM and 0.1 to 1 µM, respectively.

As for `Cc1nc(NC(=O)CCCN[C@@H](C)C(=O)OC2CCCC2)sc1-c1ccc(Cl)c(S(C)(=O)=O)c1` [Example 7, Cyclopentyl N-[4-({5-[4-chloro-3-(methylsulfonyl)phenyl]-4-methyl-1,3-thiazol-2-yl}amino)-4-oxobutyl]-L-alaninate], the IC50 was more than 1 µM on PI3Kγ (human), 0.1 to 1 µM in the assay with human whole blood and 0.1 to 1 µM with THP-1 cells.

In the case of `Cc1nc(NC(=O)CCN[C@@H](C)C(=O)OC2CCCC2)sc1-c1ccc(Cl)c(S(C)(=O)=O)c1` [Example 16, Cyclopentyl N-[3-({5-[4-chloro-3-(methylsulfonyl)phenyl]-4-methyl-1,3-thiazol-2-yl}amino)-3-oxopropyl]-L-alaninate], the IC50 at PI3Kγ (human) is more than 1 µM; in the assay with THP-1 cells it was 0.1 to 1 µM.

For the compound `Cc1nc(NCCCN[C@@H](CC(C)C)C(=O)OC2CCCC2)sc1-c1ccc(Cl)c(S(C)(=O)=O)c1` [Example 17, Cyclopentyl N-[3-({5-[4-chloro-3-(methylsulfonyl)phenyl]-4-methyl-1,3-thiazol-2-yl}amino)propyl]-L-leucinate], the IC50 at PI3Kγ (human) and in the assay on THP-1 cells was more than 1 µM each time.

For the compound `Cc1nc(NCC2CCC(N[C@@H](CC(C)C)C(=O)OC3CCCC3)CC2)sc1-c1ccc(Cl)c(S(C)(=O)=O)c1` (stereo partly drawn) [Example 18, Cyclopentyl N-{4-[({5-[4-chloro-3-(methylsulfonyl)phenyl]-4-methyl-1,3-thiazol-2-yl}amino)methyl]cyclohexyl}-L-leucinate], the IC50 at PI3Kγ (human) and with THP-1 cells was more than 1 µM each time.

Regarding `Cc1nc(NCC2CCC(N[C@@H](CC(C)C)C(=O)OC(C)(C)C)CC2)sc1-c1ccc(Cl)c(S(C)(=O)=O)c1` (stereo partly drawn) [Example 19, tert-Butyl N-{4-[({5-[4-chloro-3-(methylsulfonyl)phenyl]-4-methyl-1,3-thiazol-2-yl}amino)methyl]cyclohexyl}-L-leucinate], the IC50 at PI3Kγ (human) and in the assay with THP-1 cells was more than 1 µM each time.

Regarding `CC(=O)Nc1nc(C)c(-c2ccc(Cl)c(S(=O)(=O)N[C@@H](C)C(=O)OC3CCCC3)c2)s1` [Example 20, Cyclopentyl N-{[5-(2-acetamido-4-methyl-1,3-thiazol-5-yl)-2-chlorophenyl]sulfonyl}-L-alaninate], the figures for the IC50 on PI3Kγ (human) and in the assay on THP-1 cells were less than 0.1 µM and more than 1 µM, respectively.

For `CC(=O)Nc1nc(C)c(-c2ccc(Cl)c(S(=O)(=O)N[C@@H](COC(C)(C)C)C(=O)OC3CCCC3)c2)s1` [Example 21, Cyclopentyl N-{[5-(2-acetamido-4-methyl-3-thiazol-5-yl)-2-chlorophenyl]sulfonyl}-O-tert-butyl-L-serinate], the IC50 at PI3Kγ (human) was 0.1 to 1 µM; in the assay on THP-1 cells, more than 1 µM.

Consider `CC(=O)Nc1nc(C)c(-c2ccc(Cl)c(S(=O)(=O)NCCN[C@@H](CC(C)C)C(=O)OC3CCCC3)c2)s1` [Example 22, Cyclopentyl N-[2-({[5-(2-acetamido-4-methyl-1,3-thiazol-5-yl)-2-chlorophenyl]sulfonyl}amino)ethyl]-L-leucinate], for which the IC50 on PI3Kγ (human) and in the assay with THP-1 cells was more than 1 µM each time.

Take `Cc1nc(NC(=O)N[C@@H](CO)C(=O)OC2CCCC2)sc1-c1ccc(Cl)c(S(C)(=O)=O)c1` [Example 23, Cyclopentyl N-({5-[4-chloro-3-(methylsulfonyl)phenyl]-4-methyl-1,3-thiazol-2-yl}carbamoyl)-L-serinate]: the IC50 at PI3Kγ (human) and in the assay on THP-1 cells was more than 1 µM throughout.

With `Cc1nc(NC(=O)CCCN[C@@H](CO)C(=O)OC2CCCC2)sc1-c1ccc(Cl)c(S(C)(=O)=O)c1` [Example 24, Cyclopentyl N-[4-({5-[4-chloro-3-(methylsulfonyl)phenyl]-4-methyl-1,3-thiazol-2-yl}amino)-4-oxobutyl]-L-serinate], the IC50 on PI3Kγ (human) is more than 1 µM; in the assay on human whole blood it was 0.1 to 1 µM; in the assay with THP-1 cells, less than 0.1 µM.

`CC(=O)Nc1nc(C)c(-c2ccc(Cl)c(S(=O)(=O)N[C@@H](CO)C(=O)OC3CCCC3)c2)s1` [Example 25, Cyclopentyl N-{[5-(2-acetamido-4-methyl-1,3-thiazol-5-yl)-2-chlorophenyl]sulfonyl}-L-serinate]: the IC50 at PI3Kγ (human) is 0.1 to 1 µM; in the assay on THP-1 cells, more than 1 µM.

For the compound `Cc1nc(NC(=O)CCCN[C@@H](COP(=O)(O)O)C(=O)OC2CCCC2)sc1-c1ccc(Cl)c(S(C)(=O)=O)c1` [Example 26, Cyclopentyl N-[4-({5-[4-chloro-3-(methylsulfonyl)phenyl]-4-methyl-1,3-thiazol-2-yl}amino)-4-oxobutyl]-O-phosphono-L-serinate], the IC50 is less than 0.1 µM at PI3Kγ (human) and more than 1 µM in the assay on THP-1 cells.

The record behind these values is patent publication US20100010057A1, “THIAZOLE DERIVATIVES AS INHIBITORS OF P13 KINASE” (CHROMA THERAPEUTICS LTD., priority 2006, published 2010).
